The test system of data set [1] is multiple-resistant E. colona (ECO-R). Briefly: Herbicide resistance profile of ECO-R. The following applies: data not shown. In kind it is in vivo, Echinochloa colona. From the text:
Beginning in 2010, through the 2016 cropping cycle, Echinochloa spp. from throughout the rice producing counties of Arkansas, USA, located along the Mississippi River were sampled for a survey of the current status of herbicide resistance. Seeds were bulk sampled from plants that had matured in rice and soybean production fields, which had survived at least one herbicide application, were collected and sent to the University of Arkansas Altheimer Laboratory in Fayetteville for characterization and evaluation of herbicide resistance to common rice herbicides. […] From this screening program, two populations of E. colona were selected for use in this experiment. […] To establish inbred and homozygous accessions for the experiment, a single plant, verified as resistant/susceptible of ECO-R and ECO-S were grown in isolation to produce seed for further experiments.
Accession source and population profiling. From 2010 to 2016, the University of Arkansas weed physiology group has been collecting putative herbicide-resistant Echinochloa populations from rice production fields throughout the state of Arkansas. […] Collections took place in the late summer to early fall prior to rice harvest; these accessions were bulk sampled by in-field location and farm, with field histories collected when possible. All of the samples were submitted to the University of Arkansas Altheimer Laboratory for assessment of their resistance profile and characterized according to their species. […] Populations with unique profiles and of interest for further research were then grown in isolation to produce pureline seed. […] Another accession, E. colona susceptible (ECO-S), was also selected and grown in isolation. This accession was selected because of its similar cropping history and geographic location, as well as its high level of susceptibility to the herbicides of interest.

Data set [2] shares this test system. Briefly: RNA-sequencing differential gene expression, herbicide-treated vs nontreated ECO-R. As to conditions: ECO-R-T vs ECO-R-N, 24 h. From the text: (§1) Pure-line generated seed of each accession were germinated in pots containing potting soil within a temperature/light controlled growth chamber set to a 14-hr day length, 33 C day temperature, and 24 C night time to simulate environmental conditions early in the rice growing season. A single plant was maintained in each of the pots and used for the treatments; two pots were used as individual biological replicates. […] Pots for each of the respective treatments were labeled as either ECO-R/S-T for the treated samples and ECO-R/S-N for the non-treated counterpart. To minimize the effect that the sprayer may play in the application, both plants of the ECO-R and ECO-S were treated at the same time. After approximately 30 minutes, allowing for the plants to dry, the treated and non-treated plants of both accessions were moved back into the growth chamber. Precisely 24-hours after application, the aboveground portion of each of the plants were removed and immediately frozen in liquid nitrogen to cease all biological function. Samples were then transferred to RNAlater™-ICE (Invitrogen, Carlsbad CA, USA) for shipment to the Clemson University Genomics Institute (CUGI), in Clemson, South Carolina.
(§2) RNA was extracted from the young leaf tissues of both replications for the ECO-R and ECO-S, T and N samples, at Clemson University. Total RNA was extracted with a kit according to the manufactures instructions. The extracted RNA was treated with DNase (Invitrogen, Calsbad, CA, USA) to remove any DNA contamination prior to further processing. The samples were prepared for sequencing by CUGI. For library preparation, the TruSeq Stranded Total RNA kit (Illumina Inc., San Diego, CA, USA) was used according to the instructions provided by the manufacturer to produce a paired-end library for sequencing. Ribosomal RNA was removed using target-specific oligonucleotides paired with rRNA removal beads, removing all cytoplasmic and mitochondrial rRNA that may result in poor quality results. RNA was fragmented and reverse transcribed to cDNA using random primers, followed by a second strand cDNA synthesis. Each fragment is then ligated with an additional ‘A’ and an adapter for sequencing. The PCR enriched product is then used to create the final cDNA library. All samples were sequenced on an Illumina Hiseq 2500 platform housed in the Holdings Cancer Center at the Medical University of South Carolina, Charleston, SC, USA. Samples, regardless of treatments or replication were ran across three lanes to reduce sequencing errors from the equipment. The resulting data were processed by CUGI.
(§3) A de novo transcriptome was assembled from the treatments described for this experiment as well as several treatments, which included herbicides profiled in ECO-R. The treatments were applied to both ECO-R and ECO-S samples with two replications as described previously. In total, 20 individual plants, from both the ECO-R and ECO-S accessions, as well as T and NT samples, were used for the assembly. The transcriptome was assembled using the Trinity RNA-Seq pipeline (Broad Institute, Cambridge, MA, USA). Raw data were assessed for quality using FastQC (Babraham Institute, Cambridge, UK) and then processed to remove adapter sequences and low quality bases using a sliding window method. The processed data were then rerun using FastQC to ensure high quality reads. Using the TrinityRNASeq 2.2.0 software, the samples were normalized, by replication, using a coverage size of 100 and kmer of 32. The normalized reads were then assembled as transcripts and genes using Trinity with the stranded library set as the default.

Data set [3] relates to ECO-R compared to ECO-S after herbicide treatment. Kind of data set: RNA-sequencing differential gene expression, ECO-R-T compared to ECO-S-T. The following applies: ECO-R-T vs ECO-S-T, 24 h.
Excerpt: as §1, §2, §3

In data set [4] the test system is susceptible E. colona (ECO-S). Kind of data set: RNA-sequencing differential gene expression, herbicide-treated vs nontreated ECO-S. The following applies: ECO-S-T vs ECO-S-N, 24 h.
Excerpt: as §1, §2, §3

Data set [5] relates to susceptible E. colona standard. Kind of data set: Determination of resistance level (visual injury), susceptible plants. The following applies: 2 X dose, visual 3 wk after treatment.
Data set [6] has as its system resistant Echinochloa species. Kind of data set: Determination of resistance level (visual injury), resistant accessions. The following applies: 2 X dose, visual 3 wk after treatment; propanil range excludes ECO187. In kind it is in vivo, E. colona and E. crus-galli. From the text: The experiment was repeated once.

“And” between values parts separate entries of the source, which are not always exact repeats. Equal values may be shown once.

`C[C@@H](Oc1ccc(Oc2ccc(C#N)cc2F)cc1)C(=O)O` [cyhalofop]: the level of resistance in data set [1] is around 2 × field dose.

Regarding `CP(=O)(O)CCC(N)C(=O)O` (stereo not shown) [glufosinate], in data set [2] (induced), the “glutamine synthetase (one form) fold change” value was 7.5 fold and the “glutamine synthetase cytosolic isozyme 1-3 fold change” value is recorded as 8.2 fold. The level of resistance in data set [1] was around 2 × field dose.

In the case of `O=C(O)c1c(Cl)ccc2cc(Cl)cnc12` [quinclorac], in data set [3], the “ABA receptor PYL5 fold change” value is given as −4.4 fold; the “ACC synthase fold change” value came out at 9 fold; the “Alanine aminotransferase 2 Fold Change” value was found to be 4 fold; the “Aspartate aminotransferase, chloroplastic Fold Change” value was 4 fold. Moreover, in data set [3], the “Beta-amylase 1, chloroplastic Fold Change” value worked out at 4 fold; the “Branched-chain-amino-acid aminotransferase 5, chloroplastic Fold Change” value is given as 4 fold; the “CYP71A1 Fold Change” value is 3 fold and 5 fold and 6 fold; the “CYP71A4 Fold Change” value was 5.6 fold and 6 fold. Further, in data set [3], the “CYP71A8 Fold Change” value is recorded as 4 fold, the “CYP71A9 Fold Change” value is reported as −6 fold, the “CYP72A15 Fold Change” value is listed as −7 fold and the “CYP89A2 Fold Change” value was −10 fold. Moreover, in data set [3], the “CYP709B2 Fold Change” value is 6 fold and 7 fold and 11 fold; the “Desumoylating isopeptidase 1 Fold Change” value came to 4 fold; the “Fructose-bisphosphate aldolase, chloroplastic Fold Change” value is given as 4 fold; the “GSTU20 Fold Change” value stood at 6 fold. Further, in data set [3], the “Haloacid dehalogenase-like hydrolase domain-containing protein 3 Fold Change” value turned out to be 4 fold; the “IAA-amino acid hydrolase ILR1-like 4 Fold Change” value is −6 fold; the “Nudix hydrolase 21, chloroplastic Fold Change” value is 3 fold and 4 fold; the “Probable xyloglucan endotransglucosylase/hydrolase protein 28 Fold Change” value is −4 fold. Also, in data set [3], the “Prolyl endopeptidase Fold Change” value was 8 fold and 9 fold and 15 fold; the “Pyrimidine-specific ribonucleoside hydrolase RihA Fold Change” value is −9 fold; the “Serine carboxypeptidase-like 42 Fold Change” value was −5 fold; the “UGT73D1 fold change” value was 8 fold. Further, in data set [3], the “UGT73E1 fold change” value is 5 fold; the “UGT74D1 Fold Change” value was −4 fold; the “UGT75D1 fold change” value was 8.7 fold and 9 fold; the “UGT88A1 Fold Change” value is on record as 4 fold. Besides, in data set [4], the ABCB5 fold change was −6.5 fold; the ABCC10 fold change was −6.1 fold; the “ACC oxidase 1 fold change (two forms)” value is 2.2 fold and 2.8 fold; the “ACC oxidase fold change” value is −2.8 fold. In data set [4], the “ACC oxidase homolog 3 fold change” value is reported as −2.2 fold; the “ACC synthase fold change” value is recorded as −2.7 fold; the “ALPL1 fold change, five repressed transcripts” value is −12 to −1.4 fold; the EIN2 fold change amounted to 3.9 fold. For the same compound, in data set [4], the RAP2-2 fold change turned out to be 1.9 fold and the “VP14 (9-cis-epoxycarotenoid dioxygenase) fold change” value is reported as −6.4 fold. For the same compound, the “ALPL1 fold change, three induced transcripts” value in data set [4] (as much as) is at most 3.5 fold. In data set [2], the ABCD2 fold change is given as −9.2 fold, the “ACC synthase fold change” value stood at 6.3 fold, the UGT73D1 fold change was 5.3 fold and the UGT73E1 fold change is 2.6 fold. In addition, in data set [2], the UGT75D1 fold change was 7.3 fold and ~9 fold; the “cytochrome c oxidase proteins fold change” value was −8.4 fold. In addition, in data set [2] (repressed), the “ATP synthase subunit(s) fold change” value is recorded as “up to −12.3 fold”. Also, in data set [2] (repressed up to), the “acetyl-CoA and acetyl-CoA 2 proteins fold change” value is “up to −10.2 fold”; the “pyruvate dehydrogenase subunits fold change” value is recorded as at most −12 fold. The compound further displayed a level of resistance in data set [1] above 32 × field dose. In data set [5], this compound displayed a susceptible plants killed of 100%. In data set [6], the “injury of resistant Echinochloa species” value is on record as 2-65%.

Source of the values: US20250250582A1, “Plant Cells and Plants Modified to Increase Herbicide Resistance and Stress Tolerance and Methods of Using the Same” (The Board of Trustees of the University of Arkansas, priority 2018, published 2025).
